According to patent US7989502B2, “Intranasal delivery of modafinil” (SRI International, priority 2009, dated 2011):

Key:
male Sprague Dawley rats = assay: Intranasal drug delivery snort model, EEG/EMG sleep-wake behavior in rats; format: in vivo, rat
Description: Formulation of Intranasal Drugs. Modafinil (Sigma) was solubilized using LME comprised of equal amounts of olive oil and phosphatidyl serine sonicated in succinate buffer, pH 8; modafinil concentrations 0.2 and 2 mg/ml. Control rats received either saline alone or lipid emulsion in succinate buffer, pH 8
Animals and surgery. Anesthetized male Sprague Dawley rats (250-350 g) were implanted with sleep recording electrodes to monitor electroencephalographic (EEG) and electromyographic (EMG) activities. A femoral vein catheter was also implanted and dorsally extended subcutaneously to exit at the posterior end of the EEG/EMG implant. The rats were individually housed in a controlled environment (12 h lights on/off; lights on, 8 am) with access to food and water ad libitum. The animals were allowed to recover for approximately 7-10 days following surgery and habituated to the recording chambers. Baseline behavior was continuously recorded for 48 to 60 h prior to experiment initiation and for at least 24 h post drug administration. Rats were sacrificed by pentobarbital administration (200 mg/kg, i.v.) into the femoral catheter without handling the animal, Greco et al., Neuroscience. 1999; 93(4):1369-74; Vazquez et al., J Cell Biochem. 2008 Dec. 15; 105(6):1472-84.
Intranasal drug delivery—snort model. Three hours into the lights on period, each rat was anesthetized with ˜3% isoflurane in O2 and placed on its back. The head and neck of the rat remained flat and horizontal throughout the entire procedure to prevent any drug from draining down the back of the throat. Reflexes were monitored periodically and anesthetic level was reduced to ˜1.5% isoflurane in O2 for anesthesia maintenance. Each drug was given in 6-7 ul administered with a manual pipette every 2 minutes into alternating nostrils (total volume=50 ul). Two minutes after the last drop was administered, the rat was removed from anesthesia, reconnected to the tethering cable and placed in the recording chamber. The effect of intranasal drug delivery on sleep-wake behavior was monitored for 24 h post-intranasal drug delivery.
Results. Rats awakened within one minute post modafinil administration. Control rats awoke within 3-5 minutes after termination of anesthesia. EEG and EMG activity during wakefulness, slow wave sleep (SWS), and rapid eye movement (REM) sleep were captured digitally, and subsequently scored manually in 10 sec epochs, averaged into one minute bins and represented graphically by hour for approximately 5 to 8 h post drug delivery. Representative individual hypnograms show the wake-promoting effects via intranasal delivery directly to the CNS. Modafinil induced wakefulness in rats at a 100-fold lower dose via our intranasal route than what has been previously published using traditional routes of administration (ie. i.v., oral).
We designed protocols to further optimize concentrations of sleep and wake promoting drugs for intranasal delivery. In exemplary experiments, the drugs are administered to rats in the following concentrations: Modafinil: 0.2 mg/ml (n=3), 0.1 mg/ml (n=3), 0 (LME only, n=3), and the rats instrumented and tested as detailed above.
Sleep Scoring and Statistical Analyses. EEG/EMG recordings are scored using SleepSign™ for Animals (Kissei Comtec, Irvine, Calif.), manually verified for accuracy and stored to disk. Waking is identified by the presence of desynchronized EEG readings and high EMG activity. SWS is identified by high amplitude slow waves together with a low EMG tone relative to waking. REM sleep is identified by the presence of regular theta activity coupled with low EMG relative to SWS. REM sleep is scored only when it follows at least a 15 s episode of SWS. All sleep-wake parameters are analyzed for each hour of the recording periods, then averaged to yield 24 h baseline estimates. A similar analysis is performed prior to and post intranasal drug administration. […]

healthy male subjects = assay: Intranasal modafinil in chronically sleep deprived humans (simulated military operation, 18 h continuous work); format: in vivo, human; conditions: 2, 10, 50 and 200 ug groups, VIANASE or OPTINOSE, given 9 h into the work period; versus LME-only and systemically-administered modafinil controls
Description: 4. Efficacy of our intranasal drug delivery in chronically sleep deprived humans is also readily confirmed using established methods. Our preferred protocol is based on the results of a series of experiments that tested the treatment efficacy of a hypnotic-stimulant combination to maintain sleep quality, performance, and alertness (Batéjat, et al., Aviat Space Environ Med. 2006 May; 77(5):515-25). Here, healthy male subjects are given zolpidem then allowed to sleep for 6 h prior to being subjected to a simulated military operation of 18 h continuous work. Modafinil (2, 10, 50 and 200 ug dosage treatment groups) is administered using (a) VIANASE electronic atomizer (Bothell, Wash.) or (b) OPTINOSE nasal delivery system (Oslo, Norway) 9 h into the work period. The effects of drugs on sleep-wake behavior (EEG recordings), cortical activation (Critical Flicker Frequency test) and performance levels (reaction time, memory search, attention, dual task, computerized Stroop tests) are monitored.

rats = assay: Chronic sleep deprivation paradigm, EEG/EMG recordings and roto-rod performance; format: in vivo, rat; conditions: rats deprived of sleep 6 h on 3 consecutive days
Description: In our chronic sleep deprivation paradigm rats are deprived of sleep for 6 h on 3 consecutive days starting at the beginning of the lights on period, when the pressure to sleep is maximal. The sleep deprivation begins with the administration of modafinil and is immediately followed by roto-rod testing. EEG/EMG recordings resumes once the rats are returned to the cage. If needed, the rats are kept awake for the remainder of the deprivation period by gentle handling. At the end of the sleep deprivation, the rats are again subjected to roto-rod testing. The sleep deprivation protocol is executed for 3 consecutive days. On the third day, half of the rats are sacrificed immediately following the sleep deprivation period. A second group of rats are sacrificed after 1-2 h of recovery sleep (RS). […]
In this protocol, the intranasal delivery of modafinil is assayed by two behavioral indicies—EEG/EMG recordings of sleep-wakefulness and performance (wheel running, roto-rod assay). […] The EEG/EMG data is analyzed as detailed above. For the roto-rod testing, the amount of time each rat spends on the wheel is analyzed and compared to control. Qualitative and quantitative analysis sets are generated and descriptive statistical comparisons and two-way ANOVA with post hoc multiple comparisons are used to evaluate changes in behavior/wheel running as a function of the day and drug, assuming equal variances.

`NC(=O)C[S+]([O-])C(c1ccccc1)c1ccccc1` (stereo not drawn) [Modafinil] was tested, and the “effective dose, body-weight equivalent” value (male Sprague Dawley rats; 2.5 ug to a 350 g rat) was 7.14 µg/kg, the translated human dose (male Sprague Dawley rats; based on a human weighing 70 kg, from the rat effective dose) was 0.5 mg and the effective dose administered (male Sprague Dawley rats; in 50 ul of LME to a 350 g rat, intranasal) was 2.5 µg. The “fold lower dose inducing wakefulness via intranasal route than published for traditional routes (i.v., oral)” value (male Sprague Dawley rats; rat, intranasal LME) was 100 fold, the “time to awakening post modafinil administration” value (male Sprague Dawley rats; rat, intranasal snort delivery in LME under isoflurane anesthesia, control rats awoke within 3-5 minutes after termination of anesthesia) was “one” and the “effective concentration of modafinil in the lipid microemulsion” value (male Sprague Dawley rats; rat, intranasal, 50 ul of LME) was 0.05 mg/mL. For the same compound, the “effect of attempting to deliver an intranasal dose comparable to that given orally” value (male Sprague Dawley rats; rat, under isoflurane anesthesia) was “the excitatory effects overcame the anesthesia and the animals woke up”, the “performance and alertness throughout the 18 h work period” value (healthy male subjects) was “maintain elevated performance and alertness over LME-only negative controls and even over systemically-administered modafinil positive-controls” and the “effectiveness of intranasal delivery under chronic stressful conditions” value (rats) was “Our results confirm the effectiveness of intranasal delivery of modafinil under chronic stressful conditions”.
